Source: ChEMBL document CHEMBL3352360, “Two new spirooxindole alkaloids from rhizosphere strain Streptomyces sp. xzqh-9” (Bioorg Med Chem Lett, 2014)
Calls of active or inactive are those of the source. The rule behind the calls is not given here.

Experiments:
[1] = target: L-lactate dehydrogenase (Homo sapiens) (UniProt V9HWB9); assay: Inhibition of LDH (unknown origin) at 10 uM by biochemical assay
[2] = Retention factor of the compound on TLC over silica gel; format: physicochemical
MCF7 = assay: Antiproliferative activity against human MCF7 cells assessed as inhibition of cell proliferation at 10 to 100 uM; format: functional
HepG2 = assay: Antiproliferative activity against human HepG2 cells assessed as inhibition of cell proliferation at 10 to 100 uM; format: functional
A549 = assay: Antiproliferative activity against human A549 cells assessed as inhibition of cell proliferation at 10 to 100 uM; format: functional
BaF3 = assay: Inhibition of Bcr-Abl (unknown origin) expressed in BaF3 cells at 30 uM; format: cell-based; conditions: Homo sapiens
[3] = Antiproliferative activity against human BGC823 cells assessed as inhibition of cell proliferation at 10 to 100 uM; format: functional, BGC-823

| SMILES | inhibition [1] | Rf [2] | inhibition (INH) (MCF7) [%] | inhibition (INH) (HepG2) [%] | inhibition (INH) (A549) [%] | inhibition (BaF3) | inhibition (INH) [3] [%] |
| --- | --- | --- | --- | --- | --- | --- | --- |
| CC1=C(O)C(=O)C2=C(CCC2)[C@]12C(=O)N(C)c1ccccc12 | inactive | 0.67 | <10 | <10 | <10 | 15% | <10 |
| C[C@@H]1[C@@H](O)C(=O)C2=C(CCC2)[C@]12C(=O)N(C)c1ccccc12 | inactive | 0.8 | <10 | <10 | <10 | inactive | <10 |
